Reference: US20170260285A1, “METHODS FOR TREATING CANCER” (UNIVERSITY OF IOWA RESEARCH FOUNDATION, priority 2014, published 2017)
“Also recorded” adds a separate entry of the source. Residues, ends and D or L forms follow the SMILES beside them. *: point of attachment. Cbz = O=C(OCc1ccccc1)*; CH2F = FC*

Tests used:
Cal-27 HNSCC cells [1] = test: IL-1α release by ELISA in Cal-27 cells; type: cell-based, human; settings: for baseline IL-1α levels: agent 1 h then DMSO 48 h; for erlotinib-induced IL-1α release: agent 1 h then erlotinib 5 μM 48 h
Description: (§1) Erlotinib (ERL; Tarceva) and anakinra (ANA; Kineret) were obtained from the inpatient pharmacy at the University of Iowa Hospitals and Clinics. Drugs were added to cells at final concentrations of 5 μM ERL and 10 ng/mL or 50 ng/mL ANA. Human IgG and […] (DMSO) were used as controls and were obtained from Sigma Aldrich. Human IL-1α, IL-1β, and IL-18Rα neutralizing antibodies were obtained from R&D Systems and were used at a concentration of 0.5 μg/mL. Recombinant human IL-1α was obtained from Life Technologies and administered at a concentration of 1 ng/mL. Ac-Y-VAD-cho, a caspase-1 inhibitor (CalBioChem), was suspended in DMSO and added at a concentration of […], a pan-caspase inhibitor (Promega) was diluted in DMSO and added at a concentration of 20 μM. TLR agonists were used at the following concentrations: Pam3CSK4 (200ng/mL), FSL-1 (100 ng/mL), Poly I:C (20 μg/mL), LPS (200 ng/mL), Flagellin (200 ng/mL), Gardiquimod (1 μg/mL), CL075 (1 μg/mL), and E. coli DNA (1 μg/mL). All TLR agonists were obtained from InvivoGen. The required volume of each drug was added directly to complete cell culture media on cells to achieve the indicated final concentrations.
(§2) Levels of IL-6, IL-1α and IL-1β of treated cells were determined by ELISA. The culture media of the treated cells were harvested and each cytokine was detected according to the manufacturer's protocol using the Human Quantikine ELISA Kits (R&D Systems, Minneapolis, Minn.).
(§3) Erlotinib (ERL; Tarceva), anakinra (ANA; Kineret) and N-acetyl cysteine (NAC; Acetadote) were obtained from the inpatient pharmacy at the University of Iowa Hospitals and Clinics. Drugs were added to cells at final concentrations of 5 μM ERL, 10 ng/mL or 50 ng/mL ANA and 20 mM NAC. Human IgG and […] (DMSO) were used as controls and were obtained from Sigma Aldrich. Pegylated catalase (CAT; Sigma Aldrich) was used at a final concentration of 100 U/mL. Human IL-1α, IL-1β, and IL-18Ra neutralizing antibodies were obtained from R&D Systems and were used at a concentration of 0.5 μg/mL. Recombinant human IL-1α was obtained from Life Technologies and administered at a concentration of 1 ng/mL. Ac-Y-VAD-cho (CalBioChem) was suspended in DMSO and used at 5 μM. Z-VAD-fmk (Promega) was diluted in DMSO and used at 20 μM. TLR agonists were used at the following concentrations: Pam3CSK4 (200 ng/mL), FSL-1 (100 ng/mL), Poly I:C (20 μg/mL), LPS (200 ng/mL), Flagellin (200 ng/mL), Gardiquimod (1 μg/mL), CL075 (1 μg/mL), and E. coli DNA (1 μg/mL). All TLR agonists were obtained from InvivoGen. The required volume of each drug was added directly to complete cell culture media on cells to achieve the indicated final concentrations.
(§4) Levels of IL-6, IL-1α and IL-1β of treated cells were determined by ELISA. The culture media of the treated cells were harvested and each cytokine was detected according to the manufacturer's protocol using Human Quantikine ELISA Kits (R&D Systems, Minneapolis, Minn.).

SQ20B HNSCC cells [2] = test: IL-1α release by ELISA in SQ20B cells; type: cell-based, human; settings: for baseline IL-1α levels: agent 1 h then DMSO 48 h; for erlotinib-induced IL-1α release: agent 1 h then erlotinib 5 μM 48 h
Description: as §1, §2, §3, §4

SQ20B and Cal27 cells = type: cell-based
Description: To determine whether cell death is responsible for IL-1α release, we used Z-VAD-fmk, a pan-caspase inhibitor, to prevent cell death. We also tested Ac-Y-VAD-cho, caspase-1 inhibitor, to assess inflammasome involvement. After testing various combinations of these inhibitors, we found an optimal concentration of 20 μM Z-VAD and 5μM Y-VAD. […] To confirm that the pan-caspase inhibitor was effectively blocking cell death, we performed a clonogenic assay with erlotinib- and Z-VAD-treated cells in SQ20B cells.

SQ20B cells = test: Clonogenic survival assay; type: cell-based, human; settings: Z-VAD 20 μM with erlotinib
Description: Clonogenic survival was determined as previously described (17). Individual assays were performed with multiple dilutions with at least four cloning dishes per data point, repeated in at least 3 separate experiments. Tumor cell implantation: Female 4-5 week old athymic-nu/nu nude mice were purchased from Harlan Laboratories (Indianapolis, IN). Mice were housed in a pathogen-free barrier room in the Animal Care Facility at the University of Iowa and handled using aseptic procedures. All procedures were approved by the IACUC committee of the University of Iowa and conformed to the guidelines established by the NIH. Mice were allowed at least 3 days to acclimate prior to beginning experimentation, and food and water were made freely available. Tumor cells (shCON or shMyD88) were inoculated into nude mice by subcutaneous injection of 0.1 mL aliquots of saline containing 2×10^6 FaDu cells into the right flank using 26-gauge needles.
Clonogenic survival was determined as previously described (22). Individual assays were performed with multiple dilutions with at least four cloning dishes per data point, repeated in at least 3 separate experiments.

Cal-27 HNSCC cells [3] = test: IL-6 secretion by ELISA in Cal-27 cells; type: cell-based, human; settings: for erlotinib-induced IL-6: agent pre-treatment then erlotinib 5 μM 48 h; for baseline IL-6 (absence of erlotinib): agent 2 h (1 h for caspase inhibitors, NAC, CAT) then DMSO 48 h
Text: (§5) Cal-27 and FaDu human head and neck squamous carcinoma (HNSCC) cells were obtained from the American Type Culture Collection (ATCC, Manassas, Va.). SQ20B HNSCC cells (16) were a gift from Dr. Anjali Gupta (Department of Radiation Oncology, The University of Iowa). All HNSCC cell lines are EGFR positive and are sensitive to EGFR inhibitors. All cell lines were authenticated by the ATCC for viability (before freezing and after thawing), growth, morphology and isoenzymology. Cells were stored according to the supplier's instructions and used over a course of no more than 3 months after resuscitation of frozen aliquots. Cultures were maintained in 5% CO2 and air humidified in a 37° C. incubator.
as §1, §2
as §5, with “(20)” for “(16)”
as §3, with “The required volume of each drug was added directly to complete cell culture media on cells to achieve the indicated final concentrations.” left out

SQ20B HNSCC cells [4] = test: IL-6 secretion by ELISA in SQ20B cells; type: cell-based, human; settings: for erlotinib-induced IL-6: agent pre-treatment then erlotinib 5 μM 48 h; for baseline IL-6 (absence of erlotinib): agent 2 h (1 h for caspase inhibitors, NAC, CAT) then DMSO 48 h
Text: as §5, §1, §2
as §5, with “(20)” for “(16)”
as §3, with “The required volume of each drug was added directly to complete cell culture media on cells to achieve the indicated final concentrations.” left out

HNSCC tumor cell lines = settings: previous studies (ref. 10); cited from earlier work
[5] = listed as pan-caspase inhibitor

For `COC(=O)C[C@H](NC(=O)[C@H](C)NC(=O)[C@@H](NC(=O)OCc1ccccc1)C(C)C)C(=O)CF` [Z-VAD-fmk] (Cbz-Val-Ala-Asp(OMe)-CH2F), the “baseline IL-1α levels” value (Cal-27 HNSCC cells [1]) was “significantly reduced”, the “baseline IL-1α levels” value (Cal-27 HNSCC cells [1]; listed as Z-VAD) was “significantly reduce” and the “erlotinib-induced IL-1α release” value (Cal-27 HNSCC cells [1]) was “significantly reduced”. For the same molecule, the “erlotinib-induced IL-1α release” value (Cal-27 HNSCC cells [1]; listed as Z-VAD) was “significantly reduce”, the “erlotinib-induced IL-1α release” value (Cal-27 HNSCC cells [1]; listed as ZVAD) was “blocked” and the “erlotinib-induced IL-1α release” value (Cal-27 HNSCC cells [1]; [5]) was “blocked”. The “baseline IL-1α levels” value (SQ20B HNSCC cells [2]) was “significantly reduced”, the “baseline IL-1α levels” value (SQ20B HNSCC cells [2]; listed as Z-VAD) was “significantly reduce” and the “erlotinib-induced IL-1α release” value (SQ20B HNSCC cells [2]) was “significantly reduced”. The “erlotinib-induced IL-1α release” value (SQ20B HNSCC cells [2]; listed as Z-VAD) was “significantly reduce”, the “erlotinib-induced IL-1α release” value (SQ20B HNSCC cells [2]; listed as ZVAD) was “blocked” and the “erlotinib-induced IL-1α release” value (SQ20B HNSCC cells [2]; [5]) was “blocked”. For the same molecule, the “highest dose that did not result in toxicity (optimal concentration)” value (SQ20B and Cal27 cells) was 20 µM, the erlotinib-induced cell death (SQ20B cells) was “blocked” and the erlotinib-induced cell death (SQ20B cells; listed as Z-VAD) was “significantly blocked”. For the same molecule, the erlotinib-induced cell death (SQ20B cells; listed as ZVAD) was “blocked” and the erlotinib-induced cell death (SQ20B cells; [5]) was “blocked”.

In the case of Ac-Y-VAD-cho, the “baseline IL-1α levels” value (Cal-27 HNSCC cells [1]) is reported as “not observed”, the “erlotinib-induced IL-1α release” value (Cal-27 HNSCC cells [1]) is reported as “did not see a decrease; also recorded: not observed” and the “erlotinib-induced IL-6” value (Cal-27 HNSCC cells [3]) is reported as “did not affect”. The “erlotinib-induced IL-1α release” value (SQ20B HNSCC cells [2]) was “did not see a decrease; also recorded: not observed”, the “highest dose that did not result in toxicity (optimal concentration)” value (SQ20B and Cal27 cells) was 5 µM and the “erlotinib-induced IL-6” value (SQ20B HNSCC cells [4]) was “did not affect”.

With `CC(=O)N[C@@H](CS)C(=O)O` [NAC, N-acetyl cysteine] the “erlotinib-induced IL-1α release” value (Cal-27 HNSCC cells [1]) was “significantly suppressed”, the “erlotinib-induced IL-6” value (Cal-27 HNSCC cells [3]) was “significantly suppressed” and the “erlotinib-induced IL-1α release” value (SQ20B HNSCC cells [2]) was “significantly suppressed”. The “erlotinib-induced IL-6” value (SQ20B HNSCC cells [4]) was “significantly suppressed”.

In the case of panitumumab, the “IL-6 expression/secretion in HNSCC cell lines treated with EGFRIs” value (HNSCC tumor cell lines) is listed as “significant upregulation”.

With anakinra the “baseline IL-6 (absence of erlotinib)” value (Cal-27 HNSCC cells [3]) was “significantly reduced”, the “erlotinib-induced IL-6” value (Cal-27 HNSCC cells [3]) was “significantly reduced; also recorded: effectively blocked” and the “erlotinib-induced IL-6” value (Cal-27 HNSCC cells [3]; listed as Anakinra) was “effectively blocked”. For the same molecule, the “baseline IL-6 (absence of erlotinib)” value (SQ20B HNSCC cells [4]) was “significantly reduced”, the “erlotinib-induced IL-6” value (SQ20B HNSCC cells [4]) was “significantly reduced; also recorded: effectively blocked” and the “erlotinib-induced IL-6” value (SQ20B HNSCC cells [4]; listed as Anakinra) was “effectively blocked”.

For `CS(=O)(=O)CCNCc1ccc(-c2ccc3ncnc(Nc4ccc(OCc5cccc(F)c5)c(Cl)c4)c3c2)o1` [lapatinib], the “IL-6 expression/secretion in HNSCC cell lines treated with EGFRIs” value (HNSCC tumor cell lines) is listed as “significant upregulation”.

B1: CAT: Pegylated catalase (Sigma Aldrich), antioxidant, 100 U/mL (protein, UniProt P00432 2-527, looked up)
Catalase: ADNRDPASDQMKHWKEQRAAQKPDVLTTGGGNPVGDKLNSLTVGPRGPLLVQDVVFTDEMAHFDRERIPERVVHAKGAGAFGYFEVTHDITRYSKAKVFEHIGKRTPIAVRFSTVAGESGSADTVRDPRGFAVKFYTEDGNWDLVGNNTPIFFIRDALLFPSFIHSQKRNPQTHLKDPDMVWDFWSLRPESLHQVSFLFSDRGIPDGHRHMNGYGSHTFKLVNANGEAVYCKFHYKTDQGIKNLSVEDAARLAHEDPDYGLRDLFNAIATGNYPSWTLYIQVMTFSEAEIFPFNPFDLTKVWPHGDYPLIPVGKLVLNRNPVNYFAEVEQLAFDPSNMPPGIEPSPDKMLQGRLFAYPDTHRHRLGPNYLQIPVNCPYRARVANYQRDGPMCMMDNQGGAPNYYPNSFSAPEHQPSALEHRTHFSGDVQRFNSANDDNVTQVRTFYLKVLNEEQRKRLCENIAGHLKDAQLFIQKKAVKNFSDVHPEYGSRIQALLDKYNEEKPKNAVHTYVQHGSHLSAREKANL
modifications: PEG
notes: Pegylated catalase (Sigma Aldrich), antioxidant, 100 U/mL
For B1, the “erlotinib-induced IL-1α release” value (Cal-27 HNSCC cells [1]) was “significantly suppressed”, the “erlotinib-induced IL-6” value (Cal-27 HNSCC cells [3]) was “significantly suppressed” and the “erlotinib-induced IL-1α release” value (SQ20B HNSCC cells [2]) was “significantly suppressed”. The “erlotinib-induced IL-6” value (SQ20B HNSCC cells [4]) was “significantly suppressed”.

B2: Exogenous IL-1α: Recombinant human IL-1α from Life Technologies, 1 ng/mL (protein, UniProt P01583 113-271, looked up)
Interleukin-1 alpha: SAPFSFLSNVKYNFMRIIKYEFILNDALNQSIIRANDQYLTAAALHNLDEAVKFDMGAYKSSKDDAKITVILRISKTQLYVTAQDEDQPVLLKEMPEIPKTITGSETNLLFFWETHGTKNYFTSVAHPNLFIATKQDYWVCLAGGPPSITDFQILENQA
With B2 the “baseline IL-6 (absence of erlotinib)” value (Cal-27 HNSCC cells [3]) was “increased”, the “erlotinib-induced IL-6” value (Cal-27 HNSCC cells [3]) was “increased” and the “baseline IL-6 (absence of erlotinib)” value (SQ20B HNSCC cells [4]) was “increased”. The “erlotinib-induced IL-6” value (SQ20B HNSCC cells [4]) was “increased”.
